pEC50: −log10 of the molar value.
What was measured:
[1] = tested on: Cisd2 promoter with firefly luciferase reporter (HEK293-CISD2); assay: Cisd2-luciferase reporter assay; assay type: cell-based; conditions: Homo sapiens; HEK293-CISD2 cells, 24 h incubation, luciferase activity
Protocol: Compounds 1-35 were tested for increasing the level of Cisd2 in human embryonic kidney cells 293 (HEK293), a transfected cell line expressing Cisd2, using the Cisd2-luciferase reporter assay as described below.
The transfected HEK293 cells stably expressed Cisd2 promoter with firefly luciferase reporter (“HEK293-CISD2”). They were kept in Dulbecco's modified Eagle's medium (“DMEM”) (Gibco, New York, N.Y.). Culture medium was supplemented with 10% heat-inactivated fetal bovine serum (“FBS”), 2 mM L-Glutamine, 1 mM sodium pyruvate, 0.1% MEM Non-Essential Amino Acids, 1 μg/ml puromycin and 1% penicillin/streptomycin (HyClone, Logan, Utah). The cells were maintained at 37° C. in an incubator (Thermo Fisher Scientific, Waltham, Mass.) with an atmosphere of 5% CO2. The stably transfected cells were seeded in 384-well plates at a density of 3×10^3 cells/well. After incubation with a tested compound at 37° C. for 24 h, ONE-Glo™ Luciferase Assay System (Promega, Madison, Wis.) was added at room temperature for 10 minutes to detect any luciferase activity. Luminescence intensity was registered using plate reader BioTek Synergy Neo2™ (Agilent, Santa Clara, Calif.).
EC50 values in this table are presented in […] classes, i.e., A: <1 μM and B: 1 μM-10 μM.

WT mice = assay: In vivo fructose-induced NASH model, wild-type mice; conditions: 0.015 wt % in diet for 5 months
From the text: Compound 1 was used to alleviate nonalcoholic steatohepatitis (NASH) in wild-type and Cisd2 hKO male mice described above.
Cisd2 hKO were bred for two generations. […] They were fed 30% (w/v) fructose (Alfa Aesar, Tewksbury, Mass.) in drinking water to establish a fructose-induced NASH model. Groups of mice at 2 months old were provided with a diet (AIN93G, TestDiet, St. Louis, Mo.) containing a vehicle (0.14 wt % of DMF and 0.15 wt % of Cremophor® EL) or Compound 1 (0.015 wt %) for 5 months. The food and drinking water were provided ad libitum.
Histopathology was used to evaluate the efficacy of Compound 1 in alleviating NASH. Liver tissues were processed and stained as described in Example 3 above.
An oral glucose tolerance test (GTT) and an insulin tolerance test (ITT) were performed to study beneficial effects of Compound 1 in the fructose-induced glucose intolerance and hepatic insulin resistant mouse model. In the oral glucose tolerance test, mice were fasted for 14 hours (7 p.m. to 9 a.m.) and then were orally administrated with glucose water (1.5 mg/g body weight) using a feeding needle. […] Blood glucose levels were measured using OneTouch® Ultra glucose test strips and SureStep® Meter (LifeScan, Milpitas, Calif.). […] Blood samples were collected and monitored at predetermined time points.

Cisd2 hKO-het mice = assay: In vivo study for treating nonalcoholic fatty liver disease (NAFLD); conditions: 0.015 wt % in diet for 4 weeks
Protocol: Compound 1 was evaluated for its anti-nonalcoholic fatty liver disease (“NAFLD”) effect and in vivo toxicity following an assay described below.
Cisd2 floxed allele (Cisd2 f/f) mice were prepared following a procedure described in Wang et al., Hum. Mol. Genet.23, 4770-85 (2014). To obtain Cisd2 heterozygous hepatocyte-specific knockout (Cisd2 hKO-het, Cisd2 f/+; Alb-Cre Tg), Cisd2 f/f mice were bred with Albumin-Cre transgenic (Alb-Cre Tg, JAX003574) mice. After one generation, Cisd2 hKO-het mice were obtained. Male mice were chosen to be used in this study. All mice have a pure or congenic C57BL/6 background and were bred/housed in a specific pathogen-free facility with a 12 h light/12 h dark cycle at a temperature of 20-22° C. Groups of mice at 8 weeks old were provided a diet (AIN93G, TestDiet) containing a vehicle (0.14 wt % of DMF and 0.15 wt % of Cremophor® EL) or compound 1 (0.015 wt %) for 4 weeks.
Histopathology was used to evaluate the efficacy of Compound 1 in ameliorating NAFLD. Liver tissues were collected and fixed with 10% neutral buffered formalin at 4° C. overnight. They were then processed in a tissue processor (STP120, Microm, Thermo Fisher Scientific Inc., Waltham, Mass.), followed by embedding in paraffin. H&E of tissue sections (3-4 μm) were carried out by a standard protocol. […]

COC(=O)c1c(N)sc(C(=O)Nc2ccc(C)cc2C)c1C [Compound 1, Methyl 2-amino-5-[(2,4-dimethylphenyl)carbamoyl]-4-methylthiophene carboxylate]
pEC50 [1]: > 6.00
toxicity (WT mice): without obvious toxicity
Cisd2 protein level (WT mice; 30% fructose in drinking water, control group 0.4): 0.8
liver and kidney toxicity (serum ALT, AST, BUN, CRE) (Cisd2 hKO-het mice): without detectable liver and kidney toxicity
expression level of Cisd2 protein (Cisd2 hKO-het mice; Cisd2+/- mice, control group 0.43): 0.7
